According to patent US20230355646A1, “AUTOPHAGY ACTIVATOR” (Resonac Corporation, priority 2020, published 2023):

Tested on: human neuroblastoma (SH-SY5Y)
Assay: Apoptosis suppressing action caused by amyloid β in human neuroblastoma (Hoechst 33342 staining)
Type: cell-based
Procedure: The proportion of apoptotic cells in human neuroblastoma (SH-SY5Y; obtained from ATCC) in the presence of an autophagy activator was measured by the following test method to evaluate the apoptosis suppressing action of the autophagy activator.
In the following examples and comparative examples, tests were performed by adding amyloid β, which is known to induce cell death called apoptosis of nerve cells due to a decrease in autophagy, to each medium.
SH-SY5Y cells were prepared at a seeding density of 50000 cells/cm^2 and cultured for 24 hours in D-MEM medium/Ham's F-12 medium (manufactured by Sigma-Aldrich) to which 10% fetal bovine serum (manufactured by MP Biomedicals) was added. […]
Thereafter, an aqueous solution of 10 μM Hoechst 33342 (manufactured by Sigma-Aldrich) was added to each SH-SY5Y cell from which the medium was removed, and the cells were allowed to stand at room temperature (25° C.) for 10 minutes. After removing the solution, each SH-SY5Y cell was washed with phosphate buffer (PBS, manufactured by Wako Pure Chemical Industries, Ltd.), and with a fluorescence microscope, the number of cells showing strong apoptosis-like Hoechst fluorescence due to chromatin aggregation (Hoechst (+) cells) was counted. […]

## COc1ccc([C@@H]2CC(=O)c3c(O)cc(O[C@@H]4O[C@H](CO[C@@H]5O[C@@H](C)[C@H](O)[C@@H](O)[C@H]5O)[C@@H](O)[C@H](O)[C@H]4O)cc3O2)cc1O [Comparative Example 2, hesperidin]
SH-SY5Y cells with amyloid β, compared to DMSO and amyloid β of Comparative Example 7
  proportion of apoptotic cells (in words): decreased
SH-SY5Y cells, 30 μM amyloid β present, 10^−2% (V/V) methyl hesperidin or hesperidin, additional ingredient where in the example, 48 hours, relative value, Reference Example 4 = 1.00
  Proportion of apoptotic cells: 3.76
